Results as given in patent publication US8106090B2, “1-amino linked compounds” (Eli Lilly and Company, priority 2005, dated 2012).
Structures can show the parent of a compound that is named as a salt.

The molecules below were run against T1, human recombinant DPIV enzyme (Homo sapiens, UniProt P27487) (assay: Human recombinant DPIV activity assay (fluorometric end point, Gly-Pro-AMC substrate)). Settings: enriched human recombinant DPIV, Gly-Pro-AMC 0.02 mM, 12 points concentration response curve, duplicates.
T1 construct: Secreted DPIV (lacking membrane anchor) was enriched from HEK293 cell culture supernatant; made in house; host or cells: HEK293
Format: biochemical
Experimental: Human Recombinant DPIV Activity Assay
The DPIV assay used was a fluorometric end point assay (excitation 355 nm; emission 460 nm) using enriched human recombinant DPIV enzyme (21.3 μU/μl), and Gly-Pro-AMC (Bachem I-1225) as substrate (0.02 mM). Secreted DPIV (lacking membrane anchor) was enriched from HEK293 cell culture supernatant by ultrafiltration, ultra-centrifugation, and size-exclusion chromatography. IC50 values of the compounds were calculated based on a 12 points concentration response curve. Each concentration was measured as duplicates. The assay was validated by plate variability and conformity, inter-plate variability, signal window, and minimum significant ration of IC50. A MSR was calculated based on a test/retest analysis and a retrospective analysis. The MSR value is 1.8.

T1 sequence (P27487 29-766 limits assumed): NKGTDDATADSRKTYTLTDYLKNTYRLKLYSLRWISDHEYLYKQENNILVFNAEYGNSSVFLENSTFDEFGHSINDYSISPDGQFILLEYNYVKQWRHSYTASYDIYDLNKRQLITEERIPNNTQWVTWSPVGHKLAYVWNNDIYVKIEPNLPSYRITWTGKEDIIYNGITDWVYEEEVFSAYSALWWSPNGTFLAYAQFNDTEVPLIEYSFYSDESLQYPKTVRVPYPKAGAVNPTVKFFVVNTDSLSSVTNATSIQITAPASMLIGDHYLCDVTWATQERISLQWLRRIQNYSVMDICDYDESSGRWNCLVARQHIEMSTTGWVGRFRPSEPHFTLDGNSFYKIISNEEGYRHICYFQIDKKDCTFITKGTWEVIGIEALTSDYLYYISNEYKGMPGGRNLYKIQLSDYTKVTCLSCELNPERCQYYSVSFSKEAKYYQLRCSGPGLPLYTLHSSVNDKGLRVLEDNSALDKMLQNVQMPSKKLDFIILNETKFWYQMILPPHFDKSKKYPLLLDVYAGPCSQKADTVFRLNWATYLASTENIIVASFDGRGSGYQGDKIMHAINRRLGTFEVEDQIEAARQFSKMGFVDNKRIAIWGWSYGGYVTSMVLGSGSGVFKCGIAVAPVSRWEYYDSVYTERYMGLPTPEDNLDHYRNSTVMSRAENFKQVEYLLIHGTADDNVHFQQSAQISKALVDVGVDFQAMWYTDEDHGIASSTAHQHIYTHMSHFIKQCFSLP

IC50 [µM]	SMILES
2.73	N[C@H](Cc1ccccc1)[C@@H](O)CN1CCCC(c2ccccc2)C1 (stereo partly drawn) [Example 6, (2S,3R)-3-Amino-4-phenyl-1-([3R,S]-3-phenyl-piperidin-1-yl)-butan-2-ol Dihydrochloride]
2.99	N[C@H](Cc1ccccc1)[C@@H](O)Cn1cccn1 [Example 13, (2S,3R)-3-Amino-4-phenyl-1-pyrazol-1-yl-butan-2-ol Hydrochloride]
4.33	N[C@H](Cc1ccccc1)[C@@H](O)Cn1cnc2ccccc21 [Example 15, (2S,3R)-3-Amino-1-benzimidazol-1-yl-4-phenyl-butan-2-ol Hydrochloride]
9.76	CN(C[C@H](O)[C@H](N)Cc1ccccc1)S(C)(=O)=O [Example 21, N-[(2S,3R)-3-Amino-2-hydroxy-4-phenyl-butyl]-N-methyl-methanesulfonamide Hydrochloride]
